Experimental data taken from patent US7449466B2, “Cyclic aminophenyl sulfamate derivative” (Aska Pharmaceutical Co., Ltd., priority 2003, dated 2008).

Experiments:
[1] = tested on: Chinese hamster lung fibroblast cells (CHL/IU cells); experiment: Chromosome aberration test using mammals' cultured cells; assay type: cell-based; conditions: short time and continuous treatment, negative = 5% or less
Method: (7) Chromosome Aberration Test Using Mammals' Cultured Cells, for Examining Genetic Toxicity: Presence of clastogenic activity of the test compounds on cultured cells was examined by a chromosome aberration test using mammals' cultured cells (Mutat. Res., 48, 337-354). The test was conducted by short time treatment method and continuous treatment method, using Chinese hamster lung fibroblast cells (CHL/IU cells). […] After the end of the culture, the medium was removed and 5 mL of a fresh medium containing solvent or a test compound at the concentration levels designed as above was added to the dishes where the continuous treatment was intended. In the short time treatment in which no S9mix was added, 3 ML of the fresh medium similar to the above was added, and where S9mix was added, 3 mL of a fresh medium formed by adding 0.5 mL of S9mix to 2.5 mL of the fresh medium similar to the above was added to the respective dishes. […] In the continuous treatment, the culture time was increased to 24 hours. In both the short time treatment and continuous treatment, 50 μL of 10 μg/mL colcemide solution was added at two hours preceding the end of the culture. After the end of the culture, the cells were detached by 0.25% trypsine solution and transferred into a centifugation tube. […]

steroid sulfatase = target: T1, steroid sulfatase (Homo sapiens, UniProt P08842); experiment: Steroid sulfatase inhibitory activity (in vitro), microsomal fraction of MCF-7 cells, [3H]estrone-3-sulfate hydrolysis; assay type: biochemical; parameters: microsomal fraction of MCF-7 human breast cancer cells was used; endogenous in cells; host or cells: MCF-7 human breast cancer cells (microsomal fraction); conditions: MCF-7 microsomal fraction, 37° C., 30 minutes
T1 sequence (P08842 22-583): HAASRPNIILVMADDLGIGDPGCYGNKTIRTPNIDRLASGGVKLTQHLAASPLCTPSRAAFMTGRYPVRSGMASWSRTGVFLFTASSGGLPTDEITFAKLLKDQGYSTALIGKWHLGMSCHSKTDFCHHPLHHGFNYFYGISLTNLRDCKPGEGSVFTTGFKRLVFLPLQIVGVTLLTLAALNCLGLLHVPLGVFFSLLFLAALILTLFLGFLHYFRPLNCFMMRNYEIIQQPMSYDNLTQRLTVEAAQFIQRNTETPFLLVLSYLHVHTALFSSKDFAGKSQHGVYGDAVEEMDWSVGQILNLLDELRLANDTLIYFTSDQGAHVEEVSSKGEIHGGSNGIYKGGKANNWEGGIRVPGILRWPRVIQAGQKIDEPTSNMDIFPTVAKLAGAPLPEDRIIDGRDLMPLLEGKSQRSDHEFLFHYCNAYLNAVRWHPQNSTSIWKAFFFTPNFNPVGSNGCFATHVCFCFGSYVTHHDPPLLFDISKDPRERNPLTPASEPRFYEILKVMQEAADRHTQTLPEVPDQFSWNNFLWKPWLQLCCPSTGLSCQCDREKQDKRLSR
Method: (1) Measurement of Steroid Sulfatase Inhibitory Activity (in vitro):
As the source of steroid sulfatase enzyme, microsomal fraction of MCF-7 human breast cancer cells was used.
To phosphate buffered saline (PBS), one of the test compounds, the microsomal fraction and 50 μL of 60 μM estrone-3-sulfate containing about 100 nCi of [6,7-^3H]estrone-3-sulfate (purchased from Perkin Elmer Life Sciences, Boston, Mass., USA; specific activity, 40-60 Ci/mmol) were added to make the total amount of the reaction system 150 μL, which was incubated at 37° C. for 30 minutes. After the incubation, 50 μL of PBS containing about 2 nCi of [4-^14C] estrone (purchased from Perkin Elmer Life Sciences, Boston, Mass., USA; specific activity 45-60 mCi/mmol) was added and stirred. Further 800 μL of toluene was added, and the whole system was thoroughly shaken for 30 seconds, followed by centrifugation at 2,000×g for 10 minutes to separate the acqueous phase from the organic phase. A part (400 μL) of the organic phase was taken and measured of its ^3H and ^14C contents with scintillation spectrometer.
The mass of hydrolyzed [6,7-^3H]estrone-3-sulfate was calculated from the count number of the obtained ^3H (as corrected regarding the amount of the used organic phase and the recovered amount of [4-^14C]estrone) and the specific activity of the substrate ([6,7-^3H]estrone-3-sulfate) to determine the steroid sulfatase inhibitory rate of each test compound.

MCF-7 cells = experiment: MCF-7 cell proliferation measurement (MTT) for examining estrogenic activity; assay type: cell-based, human; conditions: 4 days, 570 nm
Method: (3) MCF-7 Cell Proliferation Measurement for Examining Estrogenic Activity:
Stimulation of MCF-7 cell proliferation induced by estrogenic activity of each test compound was measured.
MCF-7 cells were cultured in 10% fetal bovine serum (FBS)-containing RPMI 1640 medium which was free from Phenol Red, using a 75 cm^2 culture flask. Then the medium was changed to RPMI 1640 medium containing 10% of FBS from which emdogenous steroid had been eliminated by charcoal treatment but containing no Phenol Red. Renewing the medium every two days, the culture was continued for 4 days. By this step estrogen was removed from the MCF-7 cells.
The MCF-7 cells were seeded on 96-well plates, 2,000 cells per well, and cultured for 24 hours to immobilize the cells on the plate. After the cell immobilization, the medium in each well was changed to RPMI 1640 medium containing 10^−6M test compound and 10% of charcoal-treated FBS but containing no Phenol Red, and the culture was continued for further 4 days, during which the medium was changed every day to one newly prepared before the use. Also control wells to which no test compound was added were provided.
After the end of the culture, the cell proliferation was measured by MTT (3-(4,5-dimethylthiazol-2-yl)-2,5-diphenyl-2H-tetrazolium bromide; Sigma-Aldrich Japan Co.) method. That is, an MTT solution as dissolved in PBS at a concentration of 5 mg/mL was added to the 96-well plate accommodating the cells, at a rate of 10 μL/well, followed by 2 hours' incubation at 37° C. After the end of the incubation, the medium was removed and the formazan which was taken into the cells and changed was dissolved with 100 μL of dimethylsulfoxide. Absorbance of the formazan was measured at wavelength 570 nm, using a microplate reader, subtracting the 630 nm background.
As shown by the Table 3, absorbance values of the wells to which the test compounds were added were invariably less than 150% of the absorbance of the control well, and it was confirmed that the test compounds were free of estrogenic activity.

## NS(=O)(=O)Oc1ccc(N2CCN(CCCC3CCCCC3)CC2)cc1F [Example 24, 4-[4-(3-cyclohexylpropyl)piperazin-1-yl]-2-fluorophenyl-O-sulfamate]
[1]
  Chromosome aberration test: Numerical abnormality: negative
  Chromosome aberration test: Structural abnormality: negative
Steroid sulfatase; 10^−6 M test compound
  Inhibitory rate (%) (10^−6 M): 88.8%
Steroid sulfatase; 10^−7 M test compound
  Inhibitory rate (%) (10^−7 M): 31.1%
MCF-7 cells
  Absorbance relative to that of the control well (10^−6 M, %): 74.6%
